Measurements as given in ChEMBL document CHEMBL6078670, “Discovery of a potent and selective TRPC3 antagonist with neuroprotective effects” (Bioorg Med Chem, 2025).
Calls of active or inactive are those of the source. The calls are words filed in the database; no cut-off is given here.

Legend:
[1] = molecular target: T1, Short transient receptor potential channel 7 (Homo sapiens) (UniProt Q9HCX4); experiment: Antagonist activity at human TRPC7 expressed in HEK293 cells assessed as inhibition of carbachol-induced activity at 10 uM measured after 48 hrs by Whole-cell patch clamp electrophysiology; assay type: cell-based
T1 sequence (whole entry): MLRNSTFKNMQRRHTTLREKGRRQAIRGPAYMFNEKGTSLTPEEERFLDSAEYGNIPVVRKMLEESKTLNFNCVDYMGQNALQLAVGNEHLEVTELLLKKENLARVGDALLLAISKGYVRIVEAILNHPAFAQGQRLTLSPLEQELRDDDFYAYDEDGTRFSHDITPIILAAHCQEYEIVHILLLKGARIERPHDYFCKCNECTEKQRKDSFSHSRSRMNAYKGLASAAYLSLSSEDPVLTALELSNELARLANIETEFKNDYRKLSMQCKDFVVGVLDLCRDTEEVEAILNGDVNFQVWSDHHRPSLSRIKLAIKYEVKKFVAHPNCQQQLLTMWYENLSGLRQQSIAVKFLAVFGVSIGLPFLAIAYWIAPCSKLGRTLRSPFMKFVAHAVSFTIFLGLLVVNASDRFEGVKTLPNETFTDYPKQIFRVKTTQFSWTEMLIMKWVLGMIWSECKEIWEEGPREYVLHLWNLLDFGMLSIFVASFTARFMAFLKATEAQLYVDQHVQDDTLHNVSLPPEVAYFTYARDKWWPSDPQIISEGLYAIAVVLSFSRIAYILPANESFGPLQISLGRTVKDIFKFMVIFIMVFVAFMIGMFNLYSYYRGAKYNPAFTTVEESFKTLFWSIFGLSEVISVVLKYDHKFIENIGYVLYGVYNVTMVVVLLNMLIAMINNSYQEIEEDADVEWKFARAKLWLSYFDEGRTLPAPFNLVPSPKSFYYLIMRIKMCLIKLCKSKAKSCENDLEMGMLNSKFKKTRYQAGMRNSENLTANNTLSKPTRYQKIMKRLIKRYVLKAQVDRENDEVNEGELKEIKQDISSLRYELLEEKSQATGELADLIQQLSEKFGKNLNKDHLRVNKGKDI

[2] = Metabolic stability in human liver microsomes assessed as intrinsic clearance measured up to 60 mins by LC-MS/MS analysis; assay type: ADME, Microsome; settings: 1 h
[3] = Metabolic stability in mouse liver microsomes assessed as half life measured up to 60 mins by LC-MS/MS analysis; assay type: ADME, Microsome; settings: 1 h
[4] = molecular target: T2, Cytochrome P450 1A2 (Homo sapiens, UniProt P05177); experiment: Inhibition of human liver microsomes CYP1A2 measured after 10 mins incubation by LC-MS analysis; assay type: ADME, Microsome
T2 sequence (P05177 whole entry): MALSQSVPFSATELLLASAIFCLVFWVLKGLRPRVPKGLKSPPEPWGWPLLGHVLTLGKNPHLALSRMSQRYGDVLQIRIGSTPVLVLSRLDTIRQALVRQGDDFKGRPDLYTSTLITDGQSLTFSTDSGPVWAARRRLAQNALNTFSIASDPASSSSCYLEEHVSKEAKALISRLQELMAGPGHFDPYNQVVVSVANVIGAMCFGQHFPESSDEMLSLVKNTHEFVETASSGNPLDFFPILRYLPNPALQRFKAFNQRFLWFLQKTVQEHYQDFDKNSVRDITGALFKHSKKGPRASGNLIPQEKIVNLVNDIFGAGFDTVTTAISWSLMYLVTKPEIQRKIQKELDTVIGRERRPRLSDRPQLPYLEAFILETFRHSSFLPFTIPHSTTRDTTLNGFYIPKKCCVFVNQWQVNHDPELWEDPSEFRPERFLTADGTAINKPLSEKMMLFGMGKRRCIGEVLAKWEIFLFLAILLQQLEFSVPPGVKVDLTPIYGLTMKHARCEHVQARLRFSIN

[5] = molecular target: Cytochrome P450 2C19 (Homo sapiens, UniProt P33261); experiment: Inhibition of human liver microsomes CYP2C19 measured after 10 mins incubation by LC-MS analysis; assay type: ADME, Microsome
Cytochrome P450 2C19, sequence (P33261 whole entry): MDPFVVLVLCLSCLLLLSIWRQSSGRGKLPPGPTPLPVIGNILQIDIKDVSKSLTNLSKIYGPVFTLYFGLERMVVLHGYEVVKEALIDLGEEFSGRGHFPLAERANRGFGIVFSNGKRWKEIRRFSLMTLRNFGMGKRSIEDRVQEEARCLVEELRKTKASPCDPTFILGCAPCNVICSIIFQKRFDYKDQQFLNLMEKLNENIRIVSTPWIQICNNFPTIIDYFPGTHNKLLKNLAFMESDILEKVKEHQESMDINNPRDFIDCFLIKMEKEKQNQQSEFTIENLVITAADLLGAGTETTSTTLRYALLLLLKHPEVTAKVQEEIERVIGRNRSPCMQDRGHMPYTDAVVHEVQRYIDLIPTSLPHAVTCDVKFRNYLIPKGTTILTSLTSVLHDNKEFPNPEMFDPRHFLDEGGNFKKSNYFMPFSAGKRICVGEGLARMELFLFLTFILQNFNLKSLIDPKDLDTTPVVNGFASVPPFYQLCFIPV

[6] = test system: Hippocampal neurone; experiment: Rescuing beta-amyloid induced neuronal cell damage in Sprague-Dawley rat primary hippocampal cell culture (composed of 60% primary neuron, 20% microglia and 20% astrocyte) assessed as decrease in soluble oligomeric Abeta-containing media (7PA2 cells) induced microgliosis (Iba1) at 500 nM by immunostaining analysis; assay type: functional, cell-based

- Activity [1]: inactive
- CLH [2]: 3.73 µL/min/mg
- t1/2 [3]: 21 min
- IC50 [4]: > 50 µM
- IC50 [5]: 41.5 µM
Structure (SMILES): CCNCc1cnn(-c2ccc(-n3ccc(Cl)c(Cl)c3=O)cc2)c1C(F)(F)F
- Activity [6]: Active
